Read-outs that look alike come from different tables or passages of the source. *1 amine or outer side, *2 acyl side, *3 side chain or, on linkers, in order; H or OH if unused. Where a SMILES comes first, the peptide text is derived from it. Bridges are numbered along the chain shown (N, C = ends). [ ]: non-standard residue; d: D form. The star is where a group is joined. C20 diacid = O=C(O)CCCCCCCCCCCCCCCCCCC(=O)*; γGlu = O=C(O)[C@H](CCC(=O)[*:2])N[*:1]; Hyp = O=C(O)[C@@H]1C[C@@H](O)CN1; NMeI = CC[C@H](C)[C@H](NC)C(=O)O; Aad = N[C@@H](CCCC(=O)O)C(=O)O; Sar = CNCC(=O)O
Experiments:
[1] = Assessment of physical stability (Thioflavin T fibrillation); assay type: physicochemical; set-up: key: FND = fibrillation not detected; FD = fibrillation detected; conditions: 1 mg/ml, 40° C., ThT; for Fibrillation pH 4.0 (Ac): 50 mM acetate buffer pH 4.0, 96 hours; for Fibrillation pH 7.0 (His): 50 mM histidine buffer pH 7.0, 96 hours; for Fibrillation pH 7.0 (Phos.): 50 mM phosphate buffer pH 7.0, 96 hours
Summary of the method: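 1 mg/ml peptide with 40 μM ThT in 50 mM phosphate pH 7.0, 50 mM histidine pH 7.0 or 50 mM acetate pH 4.0, in triplicate. Fluorescence read every 10 min after 300 s agitation over 96 h at 40 °C. Lag-time (h) is the intersection of linear fits to stable and growth phases.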

[2] = biological target: T1, human amylin receptor 3 (hAMYR3), hCTR2 co-expressed with hRAMP3 (Homo sapiens, UniProt O60896+P30988); experiment: hAMYR3 cAMP assay (AlphaScreen) in COS7 cells; assay type: cell-based
T1 construct: expressed in transfected cells
T1 sequence (P30988 25-474): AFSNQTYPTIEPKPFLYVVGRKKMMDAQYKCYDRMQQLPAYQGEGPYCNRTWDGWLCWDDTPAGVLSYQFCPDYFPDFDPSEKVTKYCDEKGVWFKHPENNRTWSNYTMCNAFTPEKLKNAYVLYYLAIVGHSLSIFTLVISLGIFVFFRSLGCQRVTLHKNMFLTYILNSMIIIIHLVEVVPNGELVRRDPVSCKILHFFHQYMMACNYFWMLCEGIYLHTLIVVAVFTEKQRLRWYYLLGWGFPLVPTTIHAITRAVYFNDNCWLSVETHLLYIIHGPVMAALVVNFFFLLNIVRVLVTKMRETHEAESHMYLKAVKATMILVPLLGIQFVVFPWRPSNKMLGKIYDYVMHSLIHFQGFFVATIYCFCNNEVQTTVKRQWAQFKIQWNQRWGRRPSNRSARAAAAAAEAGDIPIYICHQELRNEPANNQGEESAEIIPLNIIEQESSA
T1 sequence (O60896 24-148 partner): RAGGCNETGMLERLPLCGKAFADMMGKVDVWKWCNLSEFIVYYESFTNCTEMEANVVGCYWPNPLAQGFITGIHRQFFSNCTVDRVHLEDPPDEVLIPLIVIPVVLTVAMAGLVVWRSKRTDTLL
Summary of the method: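 Stable COS7 clone co-expressing hCTR2 and hRAMP3 was exposed to increasing peptide concentrations in Tyrode buffer (pH 7.4) with 100 µM IBMX and 0.1% casein for 15 min at 37 °C. Lysate cAMP was measured by AlphaScreen; EC50 came from 4-parameter logistic fitting.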

[3] = biological target: T2, human calcitonin receptor (hCTR2) (Homo sapiens, UniProt P30988); experiment: hCTR2 cAMP assay (AlphaScreen) in COS7 cells; assay type: cell-based
T2 construct: expressed in transfected cells
T2 sequence (P30988 25-474): T1 sequence (P30988 25-474)
Summary of the method: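 Stable hCTR2 clone in RAMP-naïve COS7 cells stimulated 15 min at 37 °C with increasing peptide concentrations in Tyrode buffer pH 7.4 containing IBMX and 0.1% casein. cAMP in lysates measured by AlphaScreen; EC50 from 4-parameter logistic fit.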

[4] = Assessment of chemical stability (RP-HPLC normalized purity); assay type: physicochemical
Summary of the method: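 Peptides at 0.2 mg/ml in water adjusted to pH 4, 6, 7.5 or 9, incubated at 40° C for 7 days. Main-peak area-% by RP-HPLC (C8 ammonium formate or C18 TFA gradient, UV 220 nm), normalized to T=0 as 100.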

[5] = cAMP induction, COS7 cells expressing hAMYR3, Table 1, read-out: hAMYR3 EC50
[6] = cAMP induction, COS7 cells expressing hCTR2, Table 1, read-out: hCTR2 EC50

Fibrillation pH 4.0 (Ac) [1] | Fibrillation pH 7.0 (His) [1] | Fibrillation pH 7.0 (Phos.) [1] | EC50 [2, 5] | EC50 [3, 6] | Structure (SMILES) | EC50 [2] | EC50 [3] | Normalized purity pH 4 (Table 5) ([4]; pH 4, repeat of Example 6 for pairs with/without Asn-Asn at 21-22) | Normalized purity pH 6 (Table 5) ([4]; pH 6, repeat of Example 6 for pairs with/without Asn-Asn at 21-22) | Normalized purity pH 7.5 (Table 5) ([4]; pH 7.5, repeat of Example 6 for pairs with/without Asn-Asn at 21-22) | Normalized purity pH 9 (Table 5) ([4]; pH 9, repeat of Example 6 for pairs with/without Asn-Asn at 21-22)
FND | FD | FD | 0.23 nM | 0.12 nM | CC[C@H](C)[C@@H](C(=O)N[C@@H](CC(C)C)C(=O)N[C@@H](CO)C(=O)N[C@@H](CO)C(=O)N[C@H](C(=O)N[C@@H](CCC(=O)O)C(=O)N[C@H](C(=O)NCC(=O)N[C@@H](CO)C(=O)N[C@@H](CCC(=O)O)C(=O)N[C@H](C(=O)N1CCC[C@H]1C(N)=O)[C@@H](C)O)C(C)C)[C@@H](C)O)N(C)C(=O)[C@H](C)NC(=O)CN(C)C(=O)[C@H](Cc1ccccc1)NC(=O)[C@H](CO)NC(=O)[C@@H](NC(=O)[C@H](CCCNC(=N)N)NC(=O)[C@H](Cc1c[nH]cn1)NC(=O)[C@H](CC(C)C)NC(=O)[C@H](Cc1ccccc1)NC(=O)[C@H](Cc1c[nH]cn1)NC(=O)[C@H](C)NC(=O)[C@H](CC(C)C)NC(=O)[C@H](CCCNC(=N)N)NC(=O)[C@H](CCC(N)=O)NC(=O)[C@@H](NC(=O)[C@H](C)NC(=O)[C@@H]1CSSC[C@H](NC(=O)[C@H](CCCNC(=N)N)NC(=O)CC[C@H](NC(=O)CCCCCCCCCCCCCCCCCCC(=O)O)C(=O)O)C(=O)N[C@@H](CC(N)=O)C(=O)N[C@@H]([C@@H](C)O)C(=O)N[C@@H](C)C(=O)N[C@@H]([C@@H](C)O)C(=O)N1)[C@@H](C)O)C(C)C [Compound 21, [19CD]-isoGlu-R-C( )-NTAT-C( )-ATQRLAHFLHRVSF-Gly(Me)-A-Ile(Me)-LSSTEVGSETP-NH2] ({C20 diacid-γGlu}-RCNTATCATQRLAHFLHRVSF[Sar]A[NMeI]LSSTEVGSETP-NH2; disulfide 2-7) | – | – | – | – | – | –
FD | FD | FD | 0.16 nM | 0.063 nM | CC[C@H](C)[C@@H](C(=O)N[C@@H](CC(C)C)C(=O)N[C@@H](CO)C(=O)N[C@@H](CO)C(=O)N[C@H](C(=O)N[C@@H](CC(=O)O)C(=O)N[C@H](C(=O)NCC(=O)N[C@@H](CO)C(=O)N[C@@H](CC(=O)O)C(=O)N[C@H](C(=O)N1CCC[C@H]1C(N)=O)[C@@H](C)O)C(C)C)[C@@H](C)O)N(C)C(=O)[C@H](C)NC(=O)CN(C)C(=O)[C@H](Cc1ccccc1)NC(=O)[C@H](CO)NC(=O)[C@H](CO)NC(=O)[C@H](CCCNC(=N)N)NC(=O)[C@H](Cc1c[nH]cn1)NC(=O)[C@H](CC(C)C)NC(=O)[C@H](Cc1ccccc1)NC(=O)[C@H](Cc1c[nH]cn1)NC(=O)[C@H](C)NC(=O)[C@H](CC(C)C)NC(=O)[C@H](CCCNC(=N)N)NC(=O)[C@H](CC(=O)O)NC(=O)[C@@H](NC(=O)[C@H](C)NC(=O)[C@@H]1CSSC[C@H](NC(=O)[C@H](CCCNC(=N)N)NC(=O)CC[C@H](NC(=O)CCCCCCCCCCCCCCCCCCC(=O)O)C(=O)O)C(=O)N2CCC[C@H]2C(=O)N[C@@H]([C@@H](C)O)C(=O)N[C@@H](C)C(=O)N[C@@H]([C@@H](C)O)C(=O)N1)[C@@H](C)O [Compound 27, [19CD]-isoGlu-R-C( )-PTAT-C( )-ATDRLAHFLHRSSF-Gly(Me)-A-Ile(Me)-LSSTDVGSDTP-NH2] ({C20 diacid-γGlu}-RCPTATCATDRLAHFLHRSSF[Sar]A[NMeI]LSSTDVGSDTP-NH2; disulfide 2-7) | – | – | – | – | – | –
– | – | – | – | – | CC[C@H](C)[C@@H](C(=O)N[C@@H](CC(C)C)C(=O)N[C@@H](CO)C(=O)N[C@@H](CO)C(=O)N[C@H](C(=O)N[C@@H](CCC(=O)O)C(=O)N[C@H](C(=O)NCC(=O)N[C@@H](CO)C(=O)N[C@@H](CC(N)=O)C(=O)N[C@H](C(=O)N1C[C@H](O)C[C@H]1C(N)=O)[C@@H](C)O)C(C)C)[C@@H](C)O)N(C)C(=O)[C@H](C)NC(=O)CN(C)C(=O)[C@H](Cc1ccccc1)NC(=O)[C@H](CC(N)=O)NC(=O)[C@H](CC(N)=O)NC(=O)[C@H](CO)NC(=O)[C@H](CO)NC(=O)[C@H](CCCNC(=N)N)NC(=O)[C@H](CCC(N)=O)NC(=O)[C@H](CC(C)C)NC(=O)[C@H](Cc1ccccc1)NC(=O)[C@H](CCCC(=O)O)NC(=O)[C@H](C)NC(=O)[C@H](CC(C)C)NC(=O)[C@H](CCCNC(=N)N)NC(=O)[C@H](CC(=O)O)NC(=O)[C@@H](NC(=O)[C@H](C)NC(=O)[C@@H]1CSSC[C@H](NC(=O)[C@H](CCCNC(=N)N)NC(=O)CC[C@H](NC(=O)CCCCCCCCCCCCCCCCCCC(=O)O)C(=O)O)C(=O)N[C@@H](CCC(N)=O)C(=O)N[C@@H]([C@@H](C)O)C(=O)N[C@@H](C)C(=O)N[C@@H]([C@@H](C)O)C(=O)N1)[C@@H](C)O [Compound 100, [19CD]-isoGlu-R-C( )-QTAT-C( )-ATDRLA-Aad-FLQRSSNNF-Gly(Me)-A-Ile(Me)-LSSTEVGSNT-Hyp-NH2, reference compound] ({C20 diacid-γGlu}-RCQTATCATDRLA[Aad]FLQRSSNNF[Sar]A[NMeI]LSSTEVGSNT[Hyp]-NH2; disulfide 2-7) | 0.53 nM | 2.2 nM | A (A = >90%) | A (A = >90%) | A (A = >90%) | B (B = 70-90%)

Reference: US20210115104A1, “AMYLIN ANALOGUES” (Zealand Pharma A/S, priority 2015, published 2021)
